This is an account of results in BindingDB's records for patent US12383533 (Frost Biologic, 2025).

Each structure is given as a SMILES string.

The target in this assay is Tubulin alpha-1A chain (Sus scrofa, UniProt P02550). Description: Not found.
Description: Not found

Chain of Tubulin alpha-1A chain (P02550 whole entry, looked up): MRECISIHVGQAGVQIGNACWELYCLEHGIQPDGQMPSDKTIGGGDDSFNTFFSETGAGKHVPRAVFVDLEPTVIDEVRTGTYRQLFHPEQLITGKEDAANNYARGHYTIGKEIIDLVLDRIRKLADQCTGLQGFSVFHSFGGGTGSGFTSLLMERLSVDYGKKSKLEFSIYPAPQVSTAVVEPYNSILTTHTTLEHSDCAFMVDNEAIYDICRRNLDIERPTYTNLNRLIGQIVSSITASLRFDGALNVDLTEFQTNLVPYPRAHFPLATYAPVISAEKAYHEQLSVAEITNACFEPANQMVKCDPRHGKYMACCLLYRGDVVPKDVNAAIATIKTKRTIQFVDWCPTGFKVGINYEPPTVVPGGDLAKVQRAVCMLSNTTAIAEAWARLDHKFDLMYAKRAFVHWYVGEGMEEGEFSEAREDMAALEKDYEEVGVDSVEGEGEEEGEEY

Turning to `Cc1ncc(C(=O)Nc2ncc(-c3cccc(NC4CC4)c3)cc2F)cn1` [US12383533, Compound 68], the IC50 came to 1980 nM.
